Measurements as given in ChEMBL document CHEMBL1146379, “Solid phase synthesis and SAR of small molecule agonists for the GPR40 receptor” (Bioorg Med Chem Lett, 2007).

What was measured:
[1] = Half life in po dosed rat; format: ADME, organism-based; settings: in vivo
[2] = molecular target: Hydroxycarboxylic acid receptor 2 (Homo sapiens, UniProt Q8TDS4); assay: Activity at HM74A receptor
[3] = molecular target: T1, Free fatty acid receptor 2 (Homo sapiens, UniProt O15552); assay: Activity at GPR43 receptor
T1 sequence (O15552 whole entry): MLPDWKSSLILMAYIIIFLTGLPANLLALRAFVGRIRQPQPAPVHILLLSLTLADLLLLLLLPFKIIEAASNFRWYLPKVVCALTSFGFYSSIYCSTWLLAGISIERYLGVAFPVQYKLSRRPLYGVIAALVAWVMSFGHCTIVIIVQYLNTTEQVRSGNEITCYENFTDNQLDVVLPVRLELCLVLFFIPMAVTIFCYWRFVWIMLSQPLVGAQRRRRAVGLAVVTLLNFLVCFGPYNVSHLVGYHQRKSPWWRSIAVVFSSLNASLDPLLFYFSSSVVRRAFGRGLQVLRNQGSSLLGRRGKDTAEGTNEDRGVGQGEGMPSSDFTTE

Cytochrome P450 1A2 = molecular target: T2, Cytochrome P450 1A2 (Homo sapiens, UniProt P05177); assay: Inhibition of CYP1A2; format: ADME
T2 sequence (P05177 whole entry): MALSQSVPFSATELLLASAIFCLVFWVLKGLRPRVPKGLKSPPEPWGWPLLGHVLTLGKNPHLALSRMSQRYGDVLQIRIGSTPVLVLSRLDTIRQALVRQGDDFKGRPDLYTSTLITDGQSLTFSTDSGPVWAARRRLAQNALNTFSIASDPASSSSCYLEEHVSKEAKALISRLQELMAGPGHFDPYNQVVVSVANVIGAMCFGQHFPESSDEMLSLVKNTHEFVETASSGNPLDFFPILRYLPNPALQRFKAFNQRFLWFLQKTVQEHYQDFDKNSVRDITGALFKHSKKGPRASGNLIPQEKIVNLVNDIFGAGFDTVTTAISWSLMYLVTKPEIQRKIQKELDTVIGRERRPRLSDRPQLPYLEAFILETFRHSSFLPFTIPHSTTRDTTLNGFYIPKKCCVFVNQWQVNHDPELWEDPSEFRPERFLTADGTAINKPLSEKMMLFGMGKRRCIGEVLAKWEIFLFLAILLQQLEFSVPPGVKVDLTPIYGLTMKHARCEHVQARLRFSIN

[4] = molecular target: T3, Peroxisome proliferator-activated receptor delta (Homo sapiens, UniProt Q03181); assay: Activity at PPARdelta receptor
T3 sequence (Q03181 whole entry): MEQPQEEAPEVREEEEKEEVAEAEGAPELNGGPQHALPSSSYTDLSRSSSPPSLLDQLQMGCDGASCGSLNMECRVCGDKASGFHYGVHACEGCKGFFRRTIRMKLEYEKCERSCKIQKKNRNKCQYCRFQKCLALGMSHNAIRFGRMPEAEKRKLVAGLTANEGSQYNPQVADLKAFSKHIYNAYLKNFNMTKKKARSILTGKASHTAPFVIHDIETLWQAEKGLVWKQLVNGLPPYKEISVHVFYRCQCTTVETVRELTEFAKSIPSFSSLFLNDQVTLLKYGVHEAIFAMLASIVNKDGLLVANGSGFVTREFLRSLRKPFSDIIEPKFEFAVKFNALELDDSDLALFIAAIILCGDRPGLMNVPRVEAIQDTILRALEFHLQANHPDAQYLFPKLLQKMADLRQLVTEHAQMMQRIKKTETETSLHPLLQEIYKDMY

[5] = molecular target: T4, Peroxisome proliferator-activated receptor gamma (Homo sapiens, UniProt P37231); assay: Activity at PPARgamma receptor
T4 sequence (P37231 whole entry): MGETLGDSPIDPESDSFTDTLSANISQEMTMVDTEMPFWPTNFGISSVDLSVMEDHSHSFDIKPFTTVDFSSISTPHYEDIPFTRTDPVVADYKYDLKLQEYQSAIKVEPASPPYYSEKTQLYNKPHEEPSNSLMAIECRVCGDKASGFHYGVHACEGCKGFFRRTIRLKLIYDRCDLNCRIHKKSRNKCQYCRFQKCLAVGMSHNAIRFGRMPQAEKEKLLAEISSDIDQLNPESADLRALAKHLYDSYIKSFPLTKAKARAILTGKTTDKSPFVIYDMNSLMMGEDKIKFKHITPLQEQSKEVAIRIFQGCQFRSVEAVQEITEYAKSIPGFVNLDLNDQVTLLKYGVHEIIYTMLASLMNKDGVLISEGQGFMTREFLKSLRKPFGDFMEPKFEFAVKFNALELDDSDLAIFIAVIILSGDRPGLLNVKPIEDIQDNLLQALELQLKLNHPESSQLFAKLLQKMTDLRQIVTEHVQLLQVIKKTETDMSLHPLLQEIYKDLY

[6] = molecular target: T5, Peroxisome proliferator-activated receptor alpha (Homo sapiens, UniProt Q07869); assay: Activity at PPARalpha receptor
T5 sequence (Q07869 whole entry): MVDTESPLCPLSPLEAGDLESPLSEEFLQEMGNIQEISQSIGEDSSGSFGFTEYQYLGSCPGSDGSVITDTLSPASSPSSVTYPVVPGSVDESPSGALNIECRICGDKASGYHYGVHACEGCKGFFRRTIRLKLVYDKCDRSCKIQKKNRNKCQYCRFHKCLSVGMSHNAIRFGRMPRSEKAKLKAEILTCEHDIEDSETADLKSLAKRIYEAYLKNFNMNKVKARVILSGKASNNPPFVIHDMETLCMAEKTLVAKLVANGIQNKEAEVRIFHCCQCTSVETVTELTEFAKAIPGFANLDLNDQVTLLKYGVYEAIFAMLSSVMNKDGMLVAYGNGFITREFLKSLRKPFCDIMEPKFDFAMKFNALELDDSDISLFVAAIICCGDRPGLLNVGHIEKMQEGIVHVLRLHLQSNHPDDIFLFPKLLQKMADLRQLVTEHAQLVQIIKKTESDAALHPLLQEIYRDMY

[7] = Volume of distribution at steady state in rat; format: ADME, organism-based; settings: in vivo, read-out: Vdss
Cytochrome P450 2C19 = Cytochrome P450 2C19 (Homo sapiens, UniProt P33261); assay: Inhibition of CYP2C19; format: ADME
Cytochrome P450 2C19, sequence (P33261 whole entry): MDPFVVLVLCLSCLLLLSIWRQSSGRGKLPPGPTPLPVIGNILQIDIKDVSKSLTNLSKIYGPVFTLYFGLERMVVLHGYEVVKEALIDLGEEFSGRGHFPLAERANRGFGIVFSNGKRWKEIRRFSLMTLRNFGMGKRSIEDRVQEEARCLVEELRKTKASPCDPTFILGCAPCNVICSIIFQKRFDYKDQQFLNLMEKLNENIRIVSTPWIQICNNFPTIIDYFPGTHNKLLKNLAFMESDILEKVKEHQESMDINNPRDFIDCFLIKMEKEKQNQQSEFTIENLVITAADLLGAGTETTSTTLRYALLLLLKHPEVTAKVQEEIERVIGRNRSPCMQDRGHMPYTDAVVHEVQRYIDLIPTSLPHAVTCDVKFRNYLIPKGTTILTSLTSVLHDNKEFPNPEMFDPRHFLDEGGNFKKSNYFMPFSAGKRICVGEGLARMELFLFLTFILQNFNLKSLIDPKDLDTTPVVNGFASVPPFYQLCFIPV

Cytochrome P450 2D6 = Cytochrome P450 2D6 (Homo sapiens, UniProt P10635); assay: Inhibition of CYP2D6; format: ADME
Cytochrome P450 2D6, sequence (P10635 whole entry): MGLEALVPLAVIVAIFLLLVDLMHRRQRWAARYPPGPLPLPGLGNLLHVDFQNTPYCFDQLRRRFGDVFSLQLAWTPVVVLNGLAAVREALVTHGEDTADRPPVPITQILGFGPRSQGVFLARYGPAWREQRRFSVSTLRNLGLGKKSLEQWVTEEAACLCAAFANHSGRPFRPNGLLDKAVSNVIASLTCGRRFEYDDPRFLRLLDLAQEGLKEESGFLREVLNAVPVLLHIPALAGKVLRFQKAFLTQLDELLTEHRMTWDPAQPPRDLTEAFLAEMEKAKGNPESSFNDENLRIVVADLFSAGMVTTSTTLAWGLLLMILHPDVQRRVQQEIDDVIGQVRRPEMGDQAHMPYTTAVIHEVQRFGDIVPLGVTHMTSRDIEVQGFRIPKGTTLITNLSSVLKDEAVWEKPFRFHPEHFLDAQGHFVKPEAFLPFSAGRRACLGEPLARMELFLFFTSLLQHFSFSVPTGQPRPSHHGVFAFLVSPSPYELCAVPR

[8] = Distribution coefficient, log D at pH 7.4; format: physicochemical; settings: octanol/water
[9] = Bioavailability in rat; format: ADME, organism-based; settings: in vivo
[10] = Clearance in rat; format: ADME, organism-based; settings: in vivo
[11] = molecular target: Free fatty acid receptor 1 (Homo sapiens, UniProt O14842); assay: Agonist activity at GPR40 receptor expressed in CHO cells by reporter gene assay; format: functional, cell-based
Free fatty acid receptor 1, sequence (O14842 whole entry): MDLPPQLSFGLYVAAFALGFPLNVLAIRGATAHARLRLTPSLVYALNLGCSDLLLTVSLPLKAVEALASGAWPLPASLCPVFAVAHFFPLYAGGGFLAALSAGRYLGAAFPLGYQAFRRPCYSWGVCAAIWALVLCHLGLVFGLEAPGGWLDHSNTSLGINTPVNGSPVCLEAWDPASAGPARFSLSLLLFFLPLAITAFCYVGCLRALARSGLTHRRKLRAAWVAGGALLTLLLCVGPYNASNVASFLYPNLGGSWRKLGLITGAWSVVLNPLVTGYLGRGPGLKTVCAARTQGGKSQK

Hydroxycarboxylic acid receptor 2, sequence (Q8TDS4 whole entry): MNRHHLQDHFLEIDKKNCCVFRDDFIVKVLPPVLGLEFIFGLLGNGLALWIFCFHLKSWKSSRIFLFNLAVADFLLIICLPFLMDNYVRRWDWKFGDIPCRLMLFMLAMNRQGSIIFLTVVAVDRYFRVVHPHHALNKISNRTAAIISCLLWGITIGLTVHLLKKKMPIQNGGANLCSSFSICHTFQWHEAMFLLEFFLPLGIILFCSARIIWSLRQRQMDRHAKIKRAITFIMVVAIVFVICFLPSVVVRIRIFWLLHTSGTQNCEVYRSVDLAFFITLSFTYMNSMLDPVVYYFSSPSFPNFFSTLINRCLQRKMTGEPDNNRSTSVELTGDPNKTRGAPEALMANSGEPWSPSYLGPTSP

O=C(O)CCc1ccc(NCc2cccc(Oc3ccccc3)c2)cc1 [GW9508]
half-life [1]: 5.9 h
EC50 [2]: > 6.31 µM
EC50 [3]: > 50.1 µM
IC50 (Cytochrome P450 1A2): > 33 µM
Ki [4]: > 3.16 µM
Ki [5]: > 3.16 µM
Ki [6]: > 3.16 µM
Vd [7]: 4.7 L/kg
IC50 (Cytochrome P450 2C19): > 33 µM
IC50 (Cytochrome P450 2D6): > 33 µM
logD [8]: 1.95
bioavailability [9]: 65%
clearance [10]: 24.9 mL/min/kg
%max [11]: 69%
